{"source": "paper PMC10392026", "about": "“Vacuolar Phosphate Transporter1 (VPT1) may transport sugar in response to soluble sugar status of grape fruits” (Horticulture Research, 2022)", "type_in_all_cases": "cell-based", "key": {"AtVPT1": {"target": "T1, AtVPT1 (Arabidopsis thaliana, UniProt F4I0G7)", "T1 construct": "gene VPT1; full-length CDS (708 residues implied by AtVPT1_162-708) in pRS426, expressed in yeast Pi uptake mutant YP101", "T1 sequence (F4I0G7 1-708)": "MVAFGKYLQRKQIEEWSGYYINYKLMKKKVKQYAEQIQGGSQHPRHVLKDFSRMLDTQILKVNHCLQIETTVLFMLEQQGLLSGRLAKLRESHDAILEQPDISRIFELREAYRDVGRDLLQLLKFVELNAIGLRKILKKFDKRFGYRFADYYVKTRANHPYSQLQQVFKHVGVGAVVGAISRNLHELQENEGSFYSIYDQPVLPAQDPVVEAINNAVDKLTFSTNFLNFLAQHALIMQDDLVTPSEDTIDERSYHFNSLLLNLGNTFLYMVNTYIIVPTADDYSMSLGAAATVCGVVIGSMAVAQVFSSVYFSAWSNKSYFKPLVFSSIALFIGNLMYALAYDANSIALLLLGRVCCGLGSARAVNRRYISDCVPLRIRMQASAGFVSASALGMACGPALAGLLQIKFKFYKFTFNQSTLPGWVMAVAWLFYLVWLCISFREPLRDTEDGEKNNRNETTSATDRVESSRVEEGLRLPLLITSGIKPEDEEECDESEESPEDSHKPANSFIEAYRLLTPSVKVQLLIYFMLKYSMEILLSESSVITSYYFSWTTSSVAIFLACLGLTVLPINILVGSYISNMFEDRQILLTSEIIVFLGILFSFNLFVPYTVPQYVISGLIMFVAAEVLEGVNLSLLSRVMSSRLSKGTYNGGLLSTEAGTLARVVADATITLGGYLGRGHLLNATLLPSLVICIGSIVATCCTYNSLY", "conditions": "1-20 mM Pi, 30 °C, 5 d; indirect growth read-out"}, "VvVPT1": {"target": "T2, VvVPT1 (Vitis vinifera, UniProt D7TW83)", "T2 construct": "gene VIT_02s0025g04540; full-length CDS (698 residues implied by VvVPT1_155-698) in pDR195, expressed in yeast hexose transport mutant EBY.VW4000", "T2 sequence (D7TW83 entry or part of it)": "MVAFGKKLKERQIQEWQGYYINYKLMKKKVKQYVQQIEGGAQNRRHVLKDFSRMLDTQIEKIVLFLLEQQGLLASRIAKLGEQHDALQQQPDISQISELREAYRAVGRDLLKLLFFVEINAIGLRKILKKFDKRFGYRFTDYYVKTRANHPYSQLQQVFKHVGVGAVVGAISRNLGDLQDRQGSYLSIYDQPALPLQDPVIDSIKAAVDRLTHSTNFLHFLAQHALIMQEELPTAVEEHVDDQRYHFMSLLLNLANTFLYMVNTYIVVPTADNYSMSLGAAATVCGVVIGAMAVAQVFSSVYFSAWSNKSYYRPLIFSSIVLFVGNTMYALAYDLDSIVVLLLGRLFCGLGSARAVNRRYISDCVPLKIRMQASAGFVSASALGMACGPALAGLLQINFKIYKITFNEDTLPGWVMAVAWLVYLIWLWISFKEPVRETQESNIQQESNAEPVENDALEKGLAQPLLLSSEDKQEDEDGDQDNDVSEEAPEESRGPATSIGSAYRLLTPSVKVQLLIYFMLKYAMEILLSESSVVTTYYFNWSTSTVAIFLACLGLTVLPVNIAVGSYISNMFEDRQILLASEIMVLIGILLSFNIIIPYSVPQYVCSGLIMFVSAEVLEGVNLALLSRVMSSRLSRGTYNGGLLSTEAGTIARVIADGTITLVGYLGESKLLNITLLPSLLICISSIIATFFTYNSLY", "test": "fluorescent uptake in yeast, confocal microscopy", "conditions": "60 uM 2-NBDG, 30 °C, 3 h; EBY.VW4000 yeast"}, "FaVPT1 [1]": {"target": "T3, FaVPT1 (Fragaria x ananassa, UniProt Z9SEB9UZJ4)", "T3 construct": "full-length CDS (696 residues implied by FaVPT1_147-696) in pDR195, expressed in yeast sucrose transport mutant SUSY7/ura3", "T3 sequence (Z9SEB9UZJ4 1-696)": "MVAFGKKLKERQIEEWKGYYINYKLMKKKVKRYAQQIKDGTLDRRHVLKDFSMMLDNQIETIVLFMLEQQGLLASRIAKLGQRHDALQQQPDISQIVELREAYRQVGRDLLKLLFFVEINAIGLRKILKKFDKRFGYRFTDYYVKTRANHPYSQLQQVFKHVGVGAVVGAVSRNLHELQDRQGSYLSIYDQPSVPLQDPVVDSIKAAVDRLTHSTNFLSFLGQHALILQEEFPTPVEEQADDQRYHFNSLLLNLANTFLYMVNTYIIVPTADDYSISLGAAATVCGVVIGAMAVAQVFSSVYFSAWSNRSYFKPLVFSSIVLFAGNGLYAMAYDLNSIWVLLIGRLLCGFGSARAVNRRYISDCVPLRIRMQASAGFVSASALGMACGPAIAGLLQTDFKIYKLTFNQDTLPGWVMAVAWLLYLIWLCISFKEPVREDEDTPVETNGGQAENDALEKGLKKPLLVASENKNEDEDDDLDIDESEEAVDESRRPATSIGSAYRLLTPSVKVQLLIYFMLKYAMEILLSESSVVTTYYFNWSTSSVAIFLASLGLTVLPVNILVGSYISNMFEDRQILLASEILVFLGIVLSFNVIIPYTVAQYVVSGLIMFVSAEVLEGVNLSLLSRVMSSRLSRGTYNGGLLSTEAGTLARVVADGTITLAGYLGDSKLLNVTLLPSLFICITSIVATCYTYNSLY", "test": "fluorescent uptake in yeast, confocal microscopy", "conditions": "[…] esculin, […] Na2HPO4 pH […] °C, […] h; SUSY7/ura3 yeast"}, "FaVPT1 [2]": {"target": "T3, FaVPT1", "test": "yeast growth complementation (SUSY7/ura3)", "conditions": "[…] (w/v) Suc as sole carbon source, […] °C; indirect growth read-out"}}}
{"smiles": "O=P(O)(O)O", "note": "[Pi]", "values": [{"measurement": "yeast growth complementation (YP101)", "setting": "AtVPT1", "value": "The yeast mutant transformed with FaVPT1, VvVPT1, or AtVPT1 restored growth"}]}
{"smiles": "O=[N+]([O-])c1ccc(N[C@H]2C(O)O[C@H](CO)[C@@H](O)[C@@H]2O)c2nonc12", "note": "(stereo partly drawn) [2-NBDG, 2-[N-(7-nitrobenz-2-oxa-1,3-diazol-4-yl)amino]-2-deoxy-d-Glc]", "values": [{"measurement": "fluorescent uptake in yeast, confocal microscopy", "setting": "VvVPT1", "value": "The fluorescence in VvVPT1-expressed yeast strain was stronger than that of the WT"}]}
{"smiles": "O=c1ccc2cc(O[C@@H]3O[C@H](CO)[C@@H](O)[C@H](O)[C@H]3O)c(O)cc2o1", "note": "[esculin]", "values": [{"measurement": "fluorescent uptake in yeast, confocal microscopy", "setting": "FaVPT1 [1]", "value": "the FaVPT1-expressed yeast strain could take up both esculin and sucrose"}]}
{"smiles": "OC[C@H]1O[C@@](CO)(O[C@H]2O[C@H](CO)[C@@H](O)[C@H](O)[C@H]2O)[C@@H](O)[C@@H]1O", "note": "[Suc]", "values": [{"measurement": "yeast growth complementation (SUSY7/ura3)", "setting": "FaVPT1 [2]", "value": "only FaVPT1 has sucrose transport capacity"}]}
